Laboratory results from patent US8017168B2, “High-potency sweetener composition with rubisco protein, rubiscolin, rubiscolin derivatives, ace inhibitory peptides, and combinations thereof, and compositions sweetened therewith” (The Coca-Cola Company, priority 2006, dated 2011).
Ends that are not written are not given here.

Tests used:
[1] = Sensory evaluation of sweetness linger by expert panel, Example Set H (phosphoric acid solution pH 2.4-2.5); type: in vivo; design: key: 0: no sweetness linger; 1: very slight sweetness linger; 2: slight sweetness linger; 3: moderate sweetness linger; 4: moderately high sweetness linger; 5: high sweetness linger; settings: scale 0-5; 500 ppm REBA or 10 g sugar in 100 ml, carbon-treated water, phosphoric acid pH 2.4-2.5
[2] = Sensory evaluation of sweetness linger by expert panel, Example Set G (citric acid/potassium citrate lemon-lime base); type: in vivo; design: key: 0: no sweetness linger; 1: very slight sweetness linger; 2: slight sweetness linger; 3: moderate sweetness linger; 4: moderately high sweetness linger; 5: high sweetness linger; settings: scale 0-5; for sweetness linger rating of control samples: 400 ppm REBA in citric acid/potassium citrate composition, 8 g sugar in 100 ml citrate buffer; for Sweetness Linger rating (defined anchors of the protocol): sucrose, 500 ppm REBA control sample
Protocol: Sensory evaluation of the samples prepared in Example Set G was carried out under the following protocol, similar to that described hereinabove. In this test protocol, none of the samples were swallowed. All samples were expectorated and the mouth was rinsed with water after the tasting. Immediately upon sensing maximal sweetness, the sample was expectorated, the mouth was rinsed with water and the rate of sweetness decay (“Sweetness Linger”) was measured, where attention was focused on the sweetness 3-4 min after the water rinse. After sample tasting was complete, a salty oyster cracker was chewed followed by a water rinse, and at least 5 minutes followed before tasting the next sample. The sweetness linger was rated by a panel of experts in the sensory evaluation of foods and beverages using the following scale: 0=no sweetness linger, 1=very slight sweetness linger, 2=slight sweetness linger, 3=moderate sweetness linger, 4=moderately high sweetness linger, 5=high sweetness linger.
The “Sweetness Linger” rating for sucrose observed by this protocol is defined as 0. The Sweetness Linger of a 500 ppm of REBA control sample is defined as 5. Experimental samples were tasted by the same protocol, always allowing sufficient time between samples to ensure re-equilibration of the sensory system. Re-tasting of control samples during the course of the experiment was allowed and encouraged.
The comparison taste test was performed between two controls and addition of sweet taste improving additive on the onset and/or sweetness linger.
The effects of formulation change on the sweetness linger of 400 ppm REBA (equivalent to 8 g sucrose) in a citric acid/potassium citrate composition equivalent to that in a diet lemon-lime beverage were evaluated. The sweetness linger rating of this solution was determined to be 5.
8 g of sugar was dissolved in 100 ml of citrate buffer. The sweetness linger rating of this control sample was determined to be 0.

[3] = Rate of dissolution of rebaudioside A polymorph and amorphous forms in H2O at 25° C.; type: physicochemical
[4] = type: physicochemical
Protocol: A solution of rebaudioside A (>97% pure by HPLC) was prepared in double distilled water (12.5 gm in 50 mL, 25% concentration) by stirring the mixture at 40° C. for 5 minutes. An amorphous form of rebaudioside A was formed by immediately using the clear solution for spray drying with the Lab-Plant spray drier SD-04 instrument (Lab-Plant Ltd., West Yorkshire, U.K.). The solution was fed through the feed pump into the nozzle atomizer which atomized it into a spray of droplets with the help of a constant flow of nitrogen/air. […] This dry powder (11-12 g, H2O 6.74%) was discharged continuously from the drying chamber and was collected in a bottle.

mice = settings: oral administration, 100 mg per kg; cited from earlier work

| Compound | Rate of dissolution in H2O at 25° C. ([3]; H2O, 25° C.) | Rate of dissolution in H2O at 25° C. ([3]; grade in words) | further results |
| --- | --- | --- | --- |
| rebaudioside A | – | – | sweetness linger rating of control samples [1]: 5; sweetness linger rating of control samples [2]: 5; Sweetness Linger rating (defined anchors of the protocol) [2]: 5 |
| OC[C@H]1O[C@@](CO)(O[C@H]2O[C@H](CO)[C@@H](O)[C@H](O)[C@H]2O)[C@@H](O)[C@@H]1O [sucrose] | – | – | sweetness linger rating of control samples [1]: 0; sweetness linger rating of control samples [2]: 0; Sweetness Linger rating (defined anchors of the protocol) [2]: 0 |
| rebaudioside A [Form 4] | (>35.0%/5 %/5 minutes | High | solubility in water at room temperature [4]: > 35.0% |
| rebaudioside A [Form 2] | (<30%/5 %/5 minutes | Intermediate | – |
| rebaudioside A [Form 1] | (<0.2%/60 %/60 minutes | Very low | – |
| YPLDLF [rubiscolin-6] | – | – | memory consolidation (mice): enhanced memory consolidation |
| rebaudioside A [Form 3] | (>30%/5 %/5 minutes | High | – |
